From US10526280B2 (University of Pittsburgh—Of the Commonwealth System of …, priority 2014, dated 2020)
Where two headings read alike, the source gives them in different places.

Assays:
KCNQ2/3 channels = target: T1, KCNQ2/3 channels (Homo sapiens, UniProt O43525+O43526); test: KCNQ2/3 currents, voltage clamp of CHO cells transiently expressing heterologous KCNQ2/3 channels; type: cell-based
T1 construct: expressed in transfected cells; host or cells: CHO cells, transient expression
Procedure: Retigabine and SF0034 at KCNQ2/3 channels. […] CHO cells transiently expressing heterologous KCNQ2/3 channels were clamped at −85 mV and KCNQ2/3 currents were measured elicited by 1 s depolarization step from −105 to +15 mV in the increment of 10 mV followed by return step to −70 mV. […] Representative current traces of KCNQ2/3 currents at increasing membrane potentials in absence and presence of 100 nM retigabine (A) and 100 nM SF0034 (C). B, D. Representative curves of normalized G-V (conductance-voltage) relationship of KCNQ2/3 currents at control and at increasing concentration of retigabine (B) and SF0034 (D). E. Summary bar graph representing half activation (V1/2) of KCNQ2/3 currents calculated from normalized G-V Boltzmann curves at control and at increasing concentration of retigabine and SF0034. […] Curves were fitted with a hill equation and EC50 values were calculated. Error bars represent mean±SEM. **p<0.01, ***p<0.001.
CHO cells transiently expressing heterologous KCNQ2/3 channels were clamped at −85 mV and KCNQ2/3 currents were measured elicited by 1 s depolarization step from −105 to +15 mV in the increment of 10 mV followed by return step to −70 mV. […] Curves were fitted with a hill equation and EC50 values were calculated. Error bars represent mean±SEM. *p<0.05, **p<0.01.
CHO cells transiently expressing heterologous KCNQ2/3 and homomeric KCNQ4 and KCNQ5 channels were clamped at −85 mV and KCNQ currents were elicited by 1 s depolarization step from −105 to +15 mV in the increment of 10 mV followed by return step to −70 mV. […] Representative current traces of KCNQ2/3 currents at increasing membrane potentials in absence and presence of 100 nM or 1 μM RL648_81. […] Representative curves of normalized G-V relationship of KCNQ2/3 currents at control and at increasing concentration of RL648_81. […] Summary bar graph representing half activation (V1/2) of KCNQ2/3 currents calculated from normalized G-V Boltzmann curves at control and at increasing concentration of RL648_81 A4. […] Curves were fitted with a hill equation and EC50 values were calculated. […] D. Summary bar graphs representing EC50 values of second generation compounds tested at KCNQ2/3 channels in comparison with SF0034.

KCNQ4 channels = target: T2, KCNQ4 channels (Homo sapiens, UniProt P56696); test: KCNQ4 currents, voltage clamp of CHO cells transiently expressing homomeric KCNQ4 channels; type: cell-based; details: 100 nM and 1 μM
T2 construct: expressed in transfected cells; host or cells: CHO cells, transient expression
Procedure: (§1) FIG. 7. […] CHO cells transiently expressing homomeric KCNQ4 or KCNQ5 channels were clamped at −85 mV and KCNQ currents were measured elicited by 1 s depolarization step from −105 to +15 mV in the increment of 10 mV followed by return step to −70 mV. […] B1-2. […] C1-2. […] E1-2. […] F1-2. […] H1-2. […] I1-2.
(§2) FIG. 9. […] CHO cells transiently expressing heterologous KCNQ2/3 and homomeric KCNQ4 and KCNQ5 channels were clamped at −85 mV and KCNQ currents were elicited by 1 s depolarization step from −105 to +15 mV in the increment of 10 mV followed by return step to −70 mV. A1. […] A2. […] A3. […] Curves were fitted with a hill equation and EC50 values were calculated. B1.

KCNQ5 channels = target: T3, KCNQ5 channels (Homo sapiens, UniProt Q9NR82); test: KCNQ5 currents, voltage clamp of CHO cells transiently expressing homomeric KCNQ5 channels; type: cell-based; details: 100 nM and 1 μM
T3 construct: expressed in transfected cells; host or cells: CHO cells, transient expression
Procedure: as §1, §2

[1] = hydrochloride salt; cited from earlier work
[2] = CHO cells, 100 nM-30 μM, Hill fit, mean±SEM, read-out: EC50 of half activation shift (ΔV1/2) of KCNQ2/3 currents

T1 sequence (O43526 whole entry): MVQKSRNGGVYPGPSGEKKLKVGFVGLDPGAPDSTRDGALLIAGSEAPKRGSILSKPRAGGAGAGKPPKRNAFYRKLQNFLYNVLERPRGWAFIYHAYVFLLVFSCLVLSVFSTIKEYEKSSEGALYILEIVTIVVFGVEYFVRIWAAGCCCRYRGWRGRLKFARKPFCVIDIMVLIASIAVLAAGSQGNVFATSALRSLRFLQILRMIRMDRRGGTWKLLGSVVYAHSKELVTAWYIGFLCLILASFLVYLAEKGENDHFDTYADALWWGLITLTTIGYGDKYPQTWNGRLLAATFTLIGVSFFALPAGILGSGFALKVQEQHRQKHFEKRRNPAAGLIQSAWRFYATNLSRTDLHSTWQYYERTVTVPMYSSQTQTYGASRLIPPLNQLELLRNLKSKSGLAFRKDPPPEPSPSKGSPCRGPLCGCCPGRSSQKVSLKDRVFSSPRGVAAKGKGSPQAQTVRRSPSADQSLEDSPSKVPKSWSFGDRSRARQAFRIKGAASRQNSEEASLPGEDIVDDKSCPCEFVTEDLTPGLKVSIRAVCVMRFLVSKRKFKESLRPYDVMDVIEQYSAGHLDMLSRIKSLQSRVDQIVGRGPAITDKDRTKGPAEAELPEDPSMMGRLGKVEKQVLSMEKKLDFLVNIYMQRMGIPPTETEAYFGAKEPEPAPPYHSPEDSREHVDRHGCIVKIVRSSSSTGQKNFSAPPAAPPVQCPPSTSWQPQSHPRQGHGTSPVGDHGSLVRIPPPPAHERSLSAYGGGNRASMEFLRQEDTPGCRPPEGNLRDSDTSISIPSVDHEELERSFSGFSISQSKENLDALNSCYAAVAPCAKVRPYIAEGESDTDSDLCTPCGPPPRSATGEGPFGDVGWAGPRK
T1 sequence (O43525 whole entry): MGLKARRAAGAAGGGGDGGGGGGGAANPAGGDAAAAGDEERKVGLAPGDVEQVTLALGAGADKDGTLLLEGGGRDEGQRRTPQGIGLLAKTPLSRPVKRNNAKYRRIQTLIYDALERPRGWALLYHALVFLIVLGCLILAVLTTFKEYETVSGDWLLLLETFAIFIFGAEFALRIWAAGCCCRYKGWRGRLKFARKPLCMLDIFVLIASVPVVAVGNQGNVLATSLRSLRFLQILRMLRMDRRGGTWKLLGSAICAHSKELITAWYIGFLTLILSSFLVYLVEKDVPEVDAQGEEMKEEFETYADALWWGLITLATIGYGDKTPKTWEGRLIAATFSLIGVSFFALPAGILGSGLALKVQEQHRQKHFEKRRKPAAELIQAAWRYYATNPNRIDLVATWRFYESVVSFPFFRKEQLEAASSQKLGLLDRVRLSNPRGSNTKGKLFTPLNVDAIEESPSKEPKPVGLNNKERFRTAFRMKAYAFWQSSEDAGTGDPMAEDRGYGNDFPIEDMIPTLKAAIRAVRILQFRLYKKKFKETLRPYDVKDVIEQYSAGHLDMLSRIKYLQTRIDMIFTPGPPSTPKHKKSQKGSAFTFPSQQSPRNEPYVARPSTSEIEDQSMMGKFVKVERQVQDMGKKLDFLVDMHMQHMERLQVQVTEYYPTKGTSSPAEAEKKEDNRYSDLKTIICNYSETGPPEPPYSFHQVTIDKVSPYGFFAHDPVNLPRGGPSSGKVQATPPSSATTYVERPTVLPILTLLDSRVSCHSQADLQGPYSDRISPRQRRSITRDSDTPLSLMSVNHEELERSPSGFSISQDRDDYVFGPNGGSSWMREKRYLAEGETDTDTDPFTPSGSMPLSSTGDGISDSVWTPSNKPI

CCOC(=O)Nc1ccc(NCc2ccc(C(F)(F)F)cc2)cc1N
EC50 (KCNQ2/3 channels): 910 ± 80 nM

CCOC(=O)Nc1ccc(NCc2cccc(C(F)(F)F)c2)cc1N [NR561_50, N-[2-Amino-4-({[3-(trifluoromethyl)phenyl]methyl}amino)phenyl]ethoxycarboxamide]
activation of KCNQ4 channel currents (KCNQ4 channels): does not activate KCNQ4 and KCNQ5 channel currents significantly | EC50 (KCNQ2/3 channels; [2]): 740 ± 70 nM | activation of KCNQ5 channel currents (KCNQ5 channels): does not activate KCNQ4 and KCNQ5 channel currents significantly

CC(C)OC(=O)Nc1ccc(NCc2ccc(F)cc2)cc1N [NR561_62, N-(2-Amino-4-{[(4-fluorophenyl)methyl]amino}phenyl)(methylethoxy)carboxamide]
potency in activating KCNQ2/3 channel currents relative to SF0034 (times lower potency) (KCNQ2/3 channels; CHO cells): 2-3 times | EC50 (KCNQ2/3 channels; [2]): 1480 ± 180 nM

CCOC(=O)Nc1ccc(NCc2cccc(C(F)(F)F)c2)c(F)c1N [RL648_73, Ethyl (2-amino-3-fluoro-4-((3-(trifluoromethyl)benzyl)amino)phenyl)carbamate]
potency in activating KCNQ2/3 channel currents relative to SF0034 (times more potent) (KCNQ2/3 channels; CHO cells): 2 times

CCOC(=O)Nc1ccc(NCc2ccc(C(F)(F)F)cc2)c(F)c1N [RL648_81, Ethyl (2-amino-3-fluoro-4-((4-(trifluoromethyl)benzyl)amino)phenyl)carbamate]
activation of KCNQ4 channel currents (KCNQ4 channels): does not potentiate KCNQ4 and KCNQ5 channel currents significantly | potency in activating KCNQ2/3 channel currents relative to SF0034 (times more potent) (KCNQ2/3 channels; CHO cells): three times more potent than SF0034 | EC50 (KCNQ2/3 channels; [2]): 190 ± 20 nM | activation of KCNQ5 channel currents (KCNQ5 channels): does not potentiate KCNQ4 and KCNQ5 channel currents significantly

CCOC(=O)Nc1ccc(NCc2ccc(F)cc2)c(F)c1N [SF0034, reference compound]
shift of half activation (V1/2) of KCNQ2/3 currents from control (KCNQ2/3 channels; 100 nM): significantly shift the V1/2 | potency in activating KCNQ2/3 channel currents relative to retigabine (times more potent) (KCNQ2/3 channels; CHO cells): five-times more potent than retigabine | EC50 (KCNQ2/3 channels; [2]): 600 ± 60 nM

CCOC(=O)Nc1ccc(NCc2ccc(F)cc2)cc1N [retigabine, reference compound]
solubility in aqueous solution [1]: only sparingly soluble | EC50 (KCNQ2/3 channels): 3300 ± 800 nM

Isopropyl (2-amino-3-fluoro-4-((4-fluorobenzyl)amino)phenyl)carbamate [RL648_86]
potency in activating KCNQ2/3 channel currents relative to SF0034 (times more potent) (KCNQ2/3 channels; CHO cells): 2 times
